Experimental data taken from US20090324682A1 (priority 2004, published 2009).

Key:
[1] = Maximal tolerated dose of Rhodamine 123 delivered intra-venously in man; type: in vivo; details: 70 kg patient
Protocol: Because inhibitors of oxidative phorphorylation are extremely toxic to a subject in the doses needed for efficacy via the systemic route, such inhibitors have been largely overlooked for effective treatment of conditions such as cancer. […] It is also known that the maximal tolerated dose of Rhodamine 123 delivered intra-venously in man is 95 mg/m^2. For a 70 kg patient, the maximum dose of systemically delivered rhodamine is about 150 mg. […] There was an accumulation of rhodamine in the prostate of the patients, but it was not sufficient to provoke a significant response.

prostate tumours = details: maximum non-lethal systemic dose, cited from earlier work
[2] = test system: Human smooth muscle cells (SMC); test: Proliferation of human smooth muscle cell cultures treated with rhodamine 123 and/or FDG; type: cell-based
Protocol: Human smooth muscle cells (SMC) were treated with rhodamine 123 and/or with FDG.
Three levels of Rhodamine 123 concentration were used first: 0.05, 1 and 2.5 mg/ml.
A combined composition of FDG and Rhodamine at various dosages were evaluated on the same human SMC cultures. The doses (FDG/rhodamine in mg/ml) were as follows: […]

For rhodamine 123, the “maximum dose of systemically delivered rhodamine” value [1] is given as “about 150 mg”, the “effect on prostate tumours” value (prostate tumours) is given as “no useful effect” and the “rhodamine in the prostate of the patients” value (prostate tumours; not sufficient to provoke a significant response) is given as “accumulation”. For the same substance, the “concentration enough to stop smooth muscle cell proliferation” value [2] was 5 µg/mL, the “proliferation rates of SMC compared to non rhodamine treated cells” value ([2]; Rhodamine 123 0.05 mg/ml) was 90+21.6% and the “proliferation rates of SMC compared to non rhodamine treated cells” value ([2]; Rhodamine 123 1 mg/ml) was 51.2 ± 10.7%. The “proliferation rates of SMC compared to non rhodamine treated cells” value ([2]; Rhodamine 123 2.5 mg/ml) was 7.3 ± 5.1% and the SMC proliferation ([2]; higher rhodamine concentrations (above 2.5 mg/ml)) was “totally suppressed”.
